Like-named read-outs stand apart in the source and are kept apart here.
Tests used:
Assay type in all cases: cell-based
Penicillium funiculosum = test: Minimum inhibitory concentration against fungi, agar incorporation test, strain M; conditions: malt extract/agar
Method: (§1) The invention is carried out using the known agar incorporation test in the following fungi:
(M) Penicillium funiculosum
(§2) in a malt extract/agar (Merck). Inhibition is effected by adding sufficient of each of the various compounds to give final concentrations in the agar of 2, 5, 10, 50 and 100 mg/liter. The concentrations (mg/liters) required to inhibit the growth of the fungi (starting from traces of fungi added dropwise) are illustrated in Table 3.

Endomyces geotrichum = test: Minimum inhibitory concentration against fungi, agar incorporation test, strain Q; conditions: malt extract/agar
Method: as §1, §2

Aureobasidium pullulans = test: Minimum inhibitory concentration against fungi, agar incorporation test, strain R; conditions: malt extract/agar
Method: as §1
(R) Aureobasidium pullulans
as §2

Aspergillus niger = test: Minimum inhibitory concentration against fungi, agar incorporation test, strain K; conditions: malt extract/agar
Method: as §1, §2

Aspergillus phoenicis = test: Minimum inhibitory concentration against fungi, agar incorporation test, strain L; conditions: malt extract/agar
Method: as §1
(L) Aspergillus phoenicis
as §2

Candida albicans = test: Minimum inhibitory concentration against fungi, agar incorporation test, strain P; conditions: malt extract/agar
Method: as §1, §2

Chlorella vulgaris = test: Action against algae: Chlorella vulgaris; design: key: --: no growth on the agar, 3 ppm have destroyed the algae in 6 hours; conditions: 3 mg/liter; for Growth on the agar (algae-destroying action): 6 hours exposure, 14 days incubation; for Growth in the medium (growth inhibition): 14 days
Method: Cultures of Chlorella vulgaris which had been grown for 14 days in algae nutrient media are diluted in the ratio 1/200 in the algae nutrient medium. Each of the compounds listed in Table 1 is then added in such an amount as to give a final concentration of 3 mg/liter. After incubating for 6 hours, 10 μl of each culture are withdrawn and added dropwise to algae/agar in order to determine the destructive action. After the cultures have incubated for 14 days under illumination (14 hours of light and 10 hours of darkness, alternately), the growth in the algae medium (determination of growth inhibition) and on the algae/agar (determination of algae-destroying action) is assessed visually.

Alternaria alternata = test: Minimum inhibitory concentration against fungi, agar incorporation test, strain N; conditions: malt extract/agar
Method: as §1, §2

[1] = tested on: mixed culture of bacteria; design: key: +: growth, no destruction; (+): growth less than that of control (>10 colonies), slight destruction; (-): slight growth (1-10 colonies); -: no growth, destruction
Chaetomium globosum = test: Minimum inhibitory concentration against fungi, agar incorporation test, strain S; conditions: malt extract/agar
Method: as §1, §2

[2] = tested on: Cladosporium cladosporioides; test: Minimum inhibitory concentration against fungi, agar incorporation test, strain O; conditions: malt extract/agar
Method: as §1
(O) Cladosporium cladosporioides
as §2

Pseudomonas aeruginosa = test: Minimum inhibitory concentration against bacteria, strain B; conditions: 24 hours at 30° C.; tested at 100 and 300 mg/liter
Method: (§3) Overnight cultures, grown in Caso peptone bouillon (Merck) of the various strains of bacteria: (A) Proteus vulgaris, (B) Pseudomonas aeruginosa, (C) Enterobacter aerogenes, (D) Serratia marcencens, (E) Alcaligenes denitrificans and (F) Bacillus subtilis are each diluted in a ratio of 1/1000 in saline solution. Sufficient of the suspensions is put into Caso peptone bouillon to dilute the bacteria again in the ratio of 1/1000. Each of the compounds listed in Table 1 is then added in amounts of 100 and 300 mg/liter. After being incubated for 24 hours at 30° C. in a shaking waterbath, the turbidity of the samples is evaluated.

Proteus vulgaris = test: Minimum inhibitory concentration against bacteria, strain A; conditions: 24 hours at 30° C.; tested at 100 and 300 mg/liter
Method: as §3

Serratia marcencens = test: Minimum inhibitory concentration against bacteria, strain D; conditions: 24 hours at 30° C.; tested at 100 and 300 mg/liter
Method: as §3

Enterobacter aerogenes = test: Minimum inhibitory concentration against bacteria, strain C; conditions: 24 hours at 30° C.; tested at 100 and 300 mg/liter
Method: as §3

[3] = tested on: Alcaligenes denitrificans; test: Minimum inhibitory concentration against bacteria, strain E; conditions: 24 hours at 30° C.; tested at 100 and 300 mg/liter
Method: as §3

Bacillus subtilis = test: Minimum inhibitory concentration against bacteria, strain F; conditions: 24 hours at 30° C.; tested at 100 and 300 mg/liter
Method: as §3

[4] = 5 mg/l, culture diluted 1/1000 in Tyrode
[5] = 5 mg/l, culture diluted 1/10000 in Tyrode
[6] = 10 mg/l, culture diluted 1/1000 in Tyrode
[7] = 10 mg/l, culture diluted 1/10000 in Tyrode
[8] = 30 mg/l, culture diluted 1/1000 in Tyrode
[9] = 30 mg/l, culture diluted 1/10000 in Tyrode
[10] = 60 mg/l, culture diluted 1/1000 in Tyrode
[11] = 60 mg/l, culture diluted 1/10000 in Tyrode
[12] = 100 mg/l, culture diluted 1/1000 in Tyrode
[13] = 100 mg/l, culture diluted 1/10000 in Tyrode

Compound | MIC against fungi, strain M (Penicillium funiculosum) [µg/mL] | MIC against fungi, strain Q (Endomyces geotrichum) [µg/mL] | MIC against fungi, strain R (Aureobasidium pullulans) [µg/mL] | MIC against fungi, strain K (Aspergillus niger) [µg/mL] | MIC against fungi, strain L (Aspergillus phoenicis) [µg/mL] | MIC against fungi, strain P (Candida albicans) [µg/mL] | Growth on the agar (algae-destroying action) (Chlorella vulgaris) | Growth in the medium (growth inhibition) (Chlorella vulgaris) | MIC against fungi, strain N (Alternaria alternata) [µg/mL] | MIC against fungi, strain S (Chaetomium globosum) [µg/mL] | MIC against fungi, strain O [2] [µg/mL] | MIC against bacteria, strain B (Pseudomonas aeruginosa) [µg/mL] | MIC against bacteria, strain A (Proteus vulgaris) [µg/mL] | MIC against bacteria, strain D (Serratia marcencens) [µg/mL] | MIC against bacteria, strain C (Enterobacter aerogenes) [µg/mL] | MIC against bacteria, strain E [3] [µg/mL] | MIC against bacteria, strain F (Bacillus subtilis) [µg/mL] | further results
CCCCCCCCCCCCCCCC[N+](C)(C)C.CCC[CH2][Sn-]([Cl])([Cl])([CH2]CCC)[CH2]CCC [Example 17, (CH3)3 NC16 H33 / Tributyldichloro] | 5 | 10 | 2 | 2 | 2 | 5 | -- | -- | 2 | 2 | 2 |  |  |  |  |  |  | Growth (destruction of a mixed culture of bacteria) [1, 4]: +; Growth (destruction of a mixed culture of bacteria) [1, 5]: (+) (growth less than that of control (>10 colonies), slight destruction); Growth (destruction of a mixed culture of bacteria) [1, 6]: +; Growth (destruction of a mixed culture of bacteria) [1, 7]: (+) (growth less than that of control (>10 colonies), slight destruction); Growth (destruction of a mixed culture of bacteria) [1, 8]: (+) (growth less than that of control (>10 colonies), slight destruction); Growth (destruction of a mixed culture of bacteria) [1, 9]: -; Growth (destruction of a mixed culture of bacteria) [1, 10]: -; Growth (destruction of a mixed culture of bacteria) [1, 11]: -; Growth (destruction of a mixed culture of bacteria) [1, 12]: -; Growth (destruction of a mixed culture of bacteria) [1, 13]: -
(CH3)2 N(OH)C16 H37 / Tributyldichloro [Example 15] | 5 | 10 | 2 | 2 | 2 | 5 | -- | -- | 2 | 2 | 2 | 100 | 100 | > 300 | > 300 | 300 | 100 | 
CCCCCCCCCCCCC(=O)NCCC[N+](C)(C)O.CCC[CH2][Sn-]([Cl])([Cl])([CH2]CCC)[CH2]CCC [Example 29, (C12 H25 CO)NH(CH2)3 N(OH)(CH3)2 / Tributyldichloro] | 10 | 10 | ≤ 5 | ≤ 5 | ≤ 5 | ≤ 5 | -- | -- | ≤ 5 | ≤ 5 | ≤ 5 | 100 | 100 | > 300 | > 300 | 300 | 100 | 
CCCCCCCCCCCCC(=O)NCCC[N+](C)(C)CC(N)=O.CCC[CH2][Sn-]([Cl])([Cl])([CH2]CCC)[CH2]CCC [Example 30, (C12 H25 CO)NH(CH2) 3 N(CH3)2 (CH2 CONH2) / Tributyldichloro] | 10 | 10 | ≤ 5 | ≤ 5 | ≤ 5 | ≤ 5 | -- | -- | ≤ 5 | ≤ 5 | ≤ 5 | 100 | 100 | 100 | 100 | 100 | 100 | 
CCCCCCCCCCCC[N+](C)(C)O.CCC[CH2][Sn-]([Cl])([Cl])([CH2]CCC)[CH2]CCC [Example 14, (CH3)2 N(OH)C12 H25 / Tributyldichloro] | 5 | 10 | 2 | 2 | 2 | 5 | -- | -- | 2 | 2 | 2 | 100 | 100 | 300 | > 300 | 300 | 100 | 
CCC[CH2][Sn-]([Cl])([Cl])([CH2]CCC)[CH2]CCC.CCC[CH2][Sn-]([Cl])([Cl])([CH2]CCC)[CH2]CCC.C[N+](C)(C)CCCCCC[N+](C)(C)C [Example 23, (CH3)3 N(CH2)6 N(CH3)3 / Tributyldichloro] | 10 | 10 | ≤ 5 | 10 | 10 | ≤ 5 | -- | -- | ≤ 5 | ≤ 5 | ≤ 5 | 100 | 100 | > 300 | 300 | 300 | 100 | 
CCCCCCCCCCCCCCCCCC[N+](C)(C)C.CCC[CH2][Sn-]([Cl])([Cl])([CH2]CCC)[CH2]CCC [Example 18, (CH3)3 NC18 H37 / Tributyldichloro] | 5 | 10 | 2 | 2 | 2 | 5 | -- | -- | 2 | 2 | 2 |  |  |  |  |  |  | Growth (destruction of a mixed culture of bacteria) [1, 4]: +; Growth (destruction of a mixed culture of bacteria) [1, 5]: (+) (growth less than that of control (>10 colonies), slight destruction); Growth (destruction of a mixed culture of bacteria) [1, 6]: +; Growth (destruction of a mixed culture of bacteria) [1, 7]: (-) (slight growth (1-10 colonies)); Growth (destruction of a mixed culture of bacteria) [1, 8]: (+) (growth less than that of control (>10 colonies), slight destruction); Growth (destruction of a mixed culture of bacteria) [1, 9]: -; Growth (destruction of a mixed culture of bacteria) [1, 10]: (+) (growth less than that of control (>10 colonies), slight destruction); Growth (destruction of a mixed culture of bacteria) [1, 11]: -; Growth (destruction of a mixed culture of bacteria) [1, 12]: (-) (slight growth (1-10 colonies)); Growth (destruction of a mixed culture of bacteria) [1, 13]: -

From patent publication US4578489A (priority 1982, dated 1986)
